Holding throughout (experiment): Antibacterial activity (MIC), agar dilution
Holding throughout (format): cell-based
For orientation: In agar dilution the substance is mixed into plates at graded concentrations.

The test system of assay [1] is E. coli TK-3*. The following applies: Escherichia coli, 20 h, E. coli TK-3, penicillinase-producing; 10^6 cells per ml; read-out: MIC. The source says: (§1) The amount of bacteria inoculated was 10^4 cells per plate (10^6 cells per ml).
(§2) * Penicillinase-producing bacteria

Assay [2] relates to Kl. pneumoniae Y-4*. The following applies: Klebsiella pneumoniae, 20 h, Kl. pneumoniae Y-4, penicillinase-producing; 10^6 cells per ml; read-out: MIC.
Source text: as §1, §2

The subject of assay [3] is Ps. aeruginosa GN3379*. The following applies: Pseudomonas aeruginosa, 20 h; Ps. aeruginosa GN3379, penicillinase-producing; 10^6 cells per ml; read-out: MIC.
Source text: as §1, §2

Assay [4] concerns St. aureus F-137*. The following applies: Staphylococcus aureus, 20 h, St. aureus F-137, penicillinase-producing; 10^6 cells per ml; read-out: MIC.
Source text: as §1, §2

The subject of assay [5] is Aci. antitratus A-6. As to conditions: 20 h, Aci. antitratus A-6; 10^6 cells per ml; 37° C., 20 hours; read-out: MIC.
Source text: as §1

Assay [6] deals with E. coli NIHJ JC-2. The following applies: Escherichia coli, NIHJJC2, 20 h.
Source text: as §1

For assay [7], the system named is St. aureus FDA209P. The following applies: Staphylococcus aureus, FDA209P, 20 h, St. aureus FDA209P; 10^6 cells per ml; 37° C., 20 hours; read-out: MIC.
Source text: as §1

Assay [8] has as its system Pro. mirabilis T-111. The following applies: Proteus mirabilis, 37° C.
Source text: as §1

For assay [9], the system named is Kl. pneumoniae Y-41. As to conditions: Klebsiella pneumoniae, Y41, 10^6 cells per ml, 37° C., 20 hours, read-out: MIC.
Source text: as §1

In assay [10] the test system is Ent. cloacae IID977. As to conditions: Enterobacter cloacae, IID977, 20 h, Ent. cloacae IID977; 10^6 cells per ml; 37° C., 20 hours; read-out: MIC.
Source text: as §1

The test system of assay [11] is Pro. vulgaris GN3027. The following applies: Proteus vulgaris, GN3027, 20 h.
Source text: as §1

The test system of assay [12] is Ps. aeruginosa S-68. As to conditions: Pseudomonas aeruginosa, S68; Ps. aeruginosa S-68; 10^6 cells per ml; 37° C., 20 hours; read-out: MIC.
Source text: as §1

Assay [13] concerns Ps. aeruginosa IFO3445. As to conditions: Pseudomonas aeruginosa; Ps. aeruginosa IFO3445; 10^6 cells per ml; 37° C., 20 hours; read-out: MIC.
Source text: as §1

The subject of assay [14] is Pro. morganii T-216. The following applies: Morganella morganii, 37° C.
Source text: as §1

The test system of assay [15] is E. coli TK-111. As to conditions: Escherichia coli, TK111, 20 h, E. coli TK-111; 10^6 cells per ml; 37° C., 20 hours; read-out: MIC.
Source text: as §1

For assay [16], the system named is Kl. pneumoniae Y-50. As to conditions: Klebsiella pneumoniae, Y50, 20 h, 10^6 cells per ml, 37° C., read-out: MIC.
Source text: as §1

Assay [17] deals with E. coli GN5482**. The following applies: Escherichia coli, 20 h; E. coli GN5482, cephalospolinase-producing; 10^6 cells per ml; read-out: MIC.
Source text: as §1
(§3) ** Cephalospolinase-producing bacteria

Assay [18] concerns Ps. aeruginosa GN918**. The following applies: Pseudomonas aeruginosa, Ps. aeruginosa GN918, cephalospolinase-producing, 10^6 cells per ml.
Source text: as §1, §3

Assay [19] deals with Pro. vulgaris GN76**. The following applies: Proteus vulgaris, 20 h; Pro. vulgaris GN76, cephalospolinase-producing; 10^6 cells per ml; read-out: MIC.
Source text: as §1, §3

The mark [20] stands for this setting: E. coli NIHJ JC-2, 10^6 cells per ml, 37° C., 20 hours, read-out: MIC.
[21] abbreviates: T111, 10^6 cells per ml, 20 hours, read-out: MIC.
The mark [22] stands for this setting: Pro. vulgaris GN3027, 10^6 cells per ml, 37° C., 20 hours, read-out: MIC.
Where [23] appears, read: T216, 10^6 cells per ml, 20 hours, read-out: MIC.

These results are taken from patent US4698352A, “4-oxo-1,4-dihydronicotinic acid derivatives, salts thereof, and antibacterial agents containing the same” (Toyama Chemical Co., Ltd., priority 1982, dated 1987).

SMILES strings stand for the structures. Values after ≈ are worked out from the molar mass of the structure shown. Read-outs that look alike come from different tables or passages of the source.

For the molecule `COc1ccc(-c2ccc(-c3cc(=O)c(C(=O)O)cn3-c3ccc(O)cc3)cc2)s1`, the MIC (usually the lowest concentration found to suppress growth) is 0.39 µg/mL (≈ 0.93 µM) in assay [1]; 1.56 µg/mL (≈ 3.72 µM) in assay [2]; 3.13 µg/mL (≈ 7.46 µM) in assay [3]; ≤ 0.05 µg/mL in assay [4]; 0.1 µg/mL (≈ 0.238 µM) in assay [5]; 0.39 µg/mL (≈ 0.93 µM) in [6] (setting [20]). Moreover, the MIC in assay [7] is ≤ 0.05 µg/mL; in [8] (setting [21]) it was 0.78 µg/mL (≈ 1.86 µM); in [9], 1.56 µg/mL (≈ 3.72 µM); in [10], 0.78 µg/mL (≈ 1.86 µM); in [11] (setting [22]), 0.2 µg/mL (≈ 0.477 µM); in assay [12], 3.13 µg/mL (≈ 7.46 µM). The minimal inhibitory concentration (MIC) in assay [13] was 6.25 µg/mL (≈ 14.9 µM); in [14] (setting [23]), 0.39 µg/mL (≈ 0.93 µM); in assay [15], 0.1 µg/mL (≈ 0.238 µM); in assay [16], 0.78 µg/mL (≈ 1.86 µM); in [17], ≤ 0.05 µg/mL; in [18] (20 h, read-out: MIC) it was 0.78 µg/mL (≈ 1.86 µM). Further, the MIC in [19] stood at 0.39 µg/mL (≈ 0.93 µM).
As to `Cc1ccc(-c2ccc(-c3cc(=O)c(C(=O)O)cn3-c3ccc(O)cc3)cc2)s1`, the MIC in assay [1] is 0.39 µg/mL (≈ 0.967 µM); in [2], 1.56 µg/mL (≈ 3.87 µM); in assay [3], 6.25 µg/mL (≈ 15.5 µM); in assay [4], ≤ 0.05 µg/mL; in assay [5] it was ≤ 0.05 µg/mL; in [6] (setting [20]), 0.2 µg/mL (≈ 0.496 µM). Besides, the minimal inhibitory concentration (MIC) in assay [7] is ≤ 0.05 µg/mL; in assay [8] (setting [21]), 0.39 µg/mL (≈ 0.967 µM); in [9], 1.56 µg/mL (≈ 3.87 µM); in assay [10], 0.78 µg/mL (≈ 1.93 µM); in [11] (setting [22]) it was 0.1 µg/mL (≈ 0.248 µM); in [12] it was 3.13 µg/mL (≈ 7.76 µM). Further, the MIC is 6.25 µg/mL (≈ 15.5 µM) in assay [13]; 0.78 µg/mL (≈ 1.93 µM) in [14] (setting [23]); 0.1 µg/mL (≈ 0.248 µM) in [15]; 0.78 µg/mL (≈ 1.93 µM) in [16]; ≤ 0.05 µg/mL in assay [17]; 1.56 µg/mL (≈ 3.87 µM) in assay [18] (GN918, 20 h). For the same molecule, the MIC in assay [19] stood at 0.39 µg/mL (≈ 0.967 µM).
For the molecule `Cn1ccc2cc(-c3cc(=O)c(C(=O)O)cn3-c3ccc(O)cc3)ccc21`, the MIC in [1] was 0.39 µg/mL (≈ 1.08 µM); in assay [2], 0.78 µg/mL (≈ 2.16 µM); in assay [3], 3.13 µg/mL (≈ 8.69 µM); in [4], ≤ 0.05 µg/mL; in [5] it was 0.1 µg/mL (≈ 0.277 µM); in assay [6] (setting [20]), 0.1 µg/mL (≈ 0.277 µM). For the same molecule, the MIC was ≤ 0.05 µg/mL in assay [7]; 0.78 µg/mL (≈ 2.16 µM) in assay [8] (setting [21]); 0.78 µg/mL (≈ 2.16 µM) in assay [9]; 0.39 µg/mL (≈ 1.08 µM) in assay [10]; 0.1 µg/mL (≈ 0.277 µM) in assay [11] (setting [22]); 3.13 µg/mL (≈ 8.69 µM) in assay [12]. Also, the minimal inhibitory concentration (MIC) in assay [13] was 3.13 µg/mL (≈ 8.69 µM); in [14] (setting [23]) it was 0.39 µg/mL (≈ 1.08 µM); in [15], ≤ 0.05 µg/mL; in [16] it was 0.2 µg/mL (≈ 0.555 µM); in assay [17], ≤ 0.05 µg/mL; in assay [18] (20 h, read-out: MIC), 0.78 µg/mL (≈ 2.16 µM). The MIC in [19] was found to be 0.39 µg/mL (≈ 1.08 µM).
As for `O=C(O)c1cn(-c2ccc(O)cc2F)c(-c2ccc(N3CCOCC3)cc2)cc1=O`, the MIC was found to be 3.13 µg/mL (≈ 7.63 µM) in assay [1]; 25 µg/mL (≈ 60.9 µM) in assay [2]; 50 µg/mL (≈ 122 µM) in assay [3]; 0.78 µg/mL (≈ 1.9 µM) in assay [4]; 6.25 µg/mL (≈ 15.2 µM) in assay [5]; 1.56 µg/mL (≈ 3.8 µM) in [6]. Further, the MIC was determined as 0.78 µg/mL (≈ 1.9 µM) in assay [7]; 12.5 µg/mL (≈ 30.5 µM) in assay [8] (T111, 20 h, 10^6 cells per ml); 12.5 µg/mL (≈ 30.5 µM) in assay [9]; 6.25 µg/mL (≈ 15.2 µM) in assay [10]; 1.56 µg/mL (≈ 3.8 µM) in assay [11]; 25 µg/mL (≈ 60.9 µM) in assay [12]. Moreover, the MIC in assay [13] came to 100 µg/mL (≈ 244 µM); in [14] (T216, 20 h, 10^6 cells per ml) it was 12.5 µg/mL (≈ 30.5 µM); in assay [15], 0.39 µg/mL (≈ 0.95 µM); in assay [16] it was 1.56 µg/mL (≈ 3.8 µM); in assay [17], 0.39 µg/mL (≈ 0.95 µM); in assay [18] (GN918, 20 h) it was 12.5 µg/mL (≈ 30.5 µM). For the same molecule, the MIC in assay [19] is 6.25 µg/mL (≈ 15.2 µM).
